Data published in patent publication US20220395500A1, “SMALL MOLECULE ACTIVATORS OF INTERFERON REGULATORY FACTOR 3 AND METHODS OF USE THEREOF” (Neuralexo, Inc., priority 2020, published 2022).

Assays:
[1] = THP1-Dual cytotoxicity (Cell Titer Glo, ATP); type: cell-based, human; settings: human, THP1-Dual cells, read-out: Thp1 cytotox CC50
Excerpt: FIG. 9C is a CC50 (50% cytotoxic concentration) graph of AV-C dependent IRF activation in THP1-Dual cells, determined with an 8-point dose response experiment. Cell viability was monitored based on quantitation of ATP present, as an indicator of metabolically active cells, where luminescence is proportional to the amount of ATP present, using Cell-Titer Glo (Promega).
The OTRADI Small Molecule Library of approximately 246,000 diverse compounds (see below for description) was screened using the THP1-Dual based HTS platform described above. All transfer steps in the screen are fully automated, thus reducing variability. Primary screening included a single data point or dose for each molecule. After data normalization was applied for each assay run, “hit” selection was performed on the plates that pass the quality control (QC) criterion. Hits were defined as samples having values above the activity cutoff determined based on noise level of the assay to reduce false positive rates. In the pilot study discussed above this activity value was >3σ above the ISRE mean with the added criteria of NFκB activation being lower than […] from the mean to identify IRF selective compounds. The ratio of ISRE:NFκB activity was also calculated as a selectivity index for prioritizing hit selection. Primary hits underwent secondary screening to determine the 50% effective concentration (EC50) and 50% cytotoxic concentration (CC50) of these agents using an 8-point dose-response curve in the human THP1-Dual cells. Cytotoxicity was measured in the plate using Cell Titer Glo (Promega). Identified candidate compounds were further screened (orthogonal screen) for cross species activity in the validated mouse J774-Dual assay using an 8-point dose-response format to determine EC50 and CC50 values as well as ISRE:NFκB ratios. A general process flow for the experimental design laid out above is depicted at FIG. 12.

J774-Dual cytotoxicity = type: cell-based, mouse; settings: mouse, J774-Dual cells, read-out: J774 cytotox CC50
Protocol: The OTRADI Small Molecule Library of approximately 246,000 diverse compounds (see below for description) was screened using the THP1-Dual based HTS platform described above. All transfer steps in the screen are fully automated, thus reducing variability. Primary screening included a single data point or dose for each molecule. After data normalization was applied for each assay run, “hit” selection was performed on the plates that pass the quality control (QC) criterion. Hits were defined as samples having values above the activity cutoff determined based on noise level of the assay to reduce false positive rates. […] The ratio of ISRE:NFκB activity was also calculated as a selectivity index for prioritizing hit selection. Primary hits underwent secondary screening to determine the 50% effective concentration (EC50) and 50% cytotoxic concentration (CC50) of these agents using an 8-point dose-response curve in the human THP1-Dual cells. Cytotoxicity was measured in the plate using Cell Titer Glo (Promega). Identified candidate compounds were further screened (orthogonal screen) for cross species activity in the validated mouse J774-Dual assay using an 8-point dose-response format to determine EC50 and CC50 values as well as ISRE:NFκB ratios. A general process flow for the experimental design laid out above is depicted at FIG. 12.

Structure (SMILES)	CC50 ([1]; Human Reporter Cell Line)	CC50 (J774-Dual cytotoxicity; Mouse Reporter Cell Line)	CC50 ([1]; Human Reporter Cell Line THP1)	CC50 (J774-Dual cytotoxicity; Mouse Reporter Cell Line J774)
CC(=O)N1CCN(c2ccc(NC(=O)c3ccc(OCc4ccccc4)cc3)cc2)CC1 [NA-2]	> 25 µM	> 25 µM	–	–
O=C(Nc1ccc(N2CCN(C(=O)c3ccco3)CC2)cc1)c1ccccc1F [NA-3]	> 25 µM	> 25 µM	–	–
O=C(c1ccco1)N1CCN(c2ccccc2)CC1 [NA-5]	> 25 µM	> 25 µM	–	–
O=C(Nc1ccc(N2CCN(C(=O)c3cccs3)CC2)cc1)c1ccc(Br)o1 [NA-8]	> 25 µM	> 25 µM	–	–
O=C(Cc1cc(Br)cc(Br)c1)Nc1ccc(N2CCN(C(=O)c3cccs3)CC2)cc1 [NA-9]	> 25 µM	> 25 µM	–	–
O=C(Nc1ccc(N2CCN(C(=O)c3cccs3)CC2)cc1)c1cccc2ccccc12 [NA-11]	> 25 µM	> 25 µM	–	–
O=C(Nc1ccc(N2CCN(C(=O)c3cccs3)CC2)cc1)c1ccc2c(c1)OCO2 [NA-12]	> 25 µM	> 25 µM	–	–
O=C(Nc1ccc(N2CCN(C(=O)c3cccs3)CC2)cc1)c1ccc(Oc2ccccc2)cc1 [NA-26]	> 25 µM	> 25 µM	–	–
CCOc1ccc(C(=O)Nc2ccc(N3CCN(C(=O)c4cccs4)CC3)c(Cl)c2)cc1Br [NA-27]	> 25 µM	> 25 µM	–	–
O=C(Nc1ccc(N2CCN(C(=O)c3cccs3)CC2)c(Cl)c1)c1ccc2c(c1)OCCO2 [NA-29]	65 µM	45.8 µM	–	–
O=C(Nc1ccc(N2CCN(C(=O)c3cccnc3)CC2)cc1)c1ccc(OCc2ccccc2)cc1 [NA-36]	> 25 µM	> 25 µM	–	–
O=C(Nc1ccc(N2CCN(C(=O)c3ccncc3)CC2)cc1)c1ccc(OCc2ccccc2)cc1 [NA-37]	> 25 µM	> 25 µM	–	–
O=C(Nc1ccc(N2CCN(C(=O)c3cccs3)CC2)cc1)c1cncc(-c2ccccc2)c1 [NA-40]	> 25 µM	> 25 µM	–	–
O=C(Nc1ccc(N2CCN(C(=O)c3ccc(Cl)cc3)CC2)cc1)c1ccc(OCc2ccccc2)cc1 [NA-45]	10.7 µM	> 25 µM	–	–
O=C(Nc1ccc(N2CCN(C(=O)c3cccc(Cl)c3)CC2)cc1)c1ccc(OCc2ccccc2)cc1 [NA-48]	> 25 µM	> 25 µM	–	–
O=C(NCCC(=O)N1CCN(C(=O)c2cccs2)CC1)c1ccc(OCc2ccccc2)cc1 [NA-54]	> 25 µM	> 25 µM	–	–
Cc1ccc(Cn2cc(CN3CCN(C(=O)c4cccs4)CC3)nn2)cc1 [NA-55]	> 25 µM	> 25 µM	–	–
O=C(c1cccs1)N1CCN(Cc2cn(Cc3ccc(Cl)cc3)nn2)CC1 [NA-56]	> 25 µM	> 25 µM	–	–
COc1cccc(Cn2cc(CN3CCN(C(=O)c4cccs4)CC3)nn2)c1 [NA-57]	> 25 µM	> 25 µM	–	–

Structure (SMILES)	CC50 ([1]; Human Reporter Cell Line)	CC50 (J774-Dual cytotoxicity; Mouse Reporter Cell Line)	CC50 ([1]; Human Reporter Cell Line THP1)	CC50 (J774-Dual cytotoxicity; Mouse Reporter Cell Line J774)
O=C(c1cccs1)N1CCN(Cc2cn(Cc3ccccc3Cl)nn2)CC1 [NA-58]	> 25 µM	> 25 µM	–	–
CCOc1ccc(C(=O)Nc2ccc(N3CCN(C(=O)c4cccs4)CC3)cc2)cc1[N+](=O)[O-] [NA-65]	> 10 µM	> 10 µM	–	–
O=C(Nc1ccc(N2CCN(C(=O)c3cccs3)CC2)c(Cl)c1)c1cc([N+](=O)[O-])ccc1N1CCOCC1 [NA-66]	> 10 µM	> 10 µM	–	–
O=C(Nc1ccc(N2CCN(C(=O)c3cccs3)CC2)cc1)c1ccccc1Br [NA-67]	> 10 µM	> 10 µM	–	–
O=C(Nc1ccc(N2CCN(C(=O)c3cccs3)CC2)cc1)c1cccc(Oc2ccccc2)c1 [NA-68]	> 10 µM	> 10 µM	–	–
O=C(c1cccs1)N1CCN(c2ccc(NS(=O)(=O)c3ccc(-c4ccccc4)cc3)cc2)CC1 [NA-69]	> 10 µM	> 10 µM	–	–
O=C(Nc1ccc(N2CCN(C(=O)c3cccs3)CC2)cc1)c1ccc(N2CCCCC2)c([N+](=O)[O-])c1 [NA-70]	> 10 µM	> 10 µM	–	–
O=C(Nc1ccc(-c2ccccc2)cc1)Nc1ccc(N2CCN(C(=O)c3cccs3)CC2)cc1 [NA-72]	> 10 µM	> 10 µM	–	–
O=C(Nc1ccc(N2CCN(C(=O)c3cccs3)CC2)c(Cl)c1)c1ccc(OCc2ccccc2)cc1 [NA-73]	> 10 µM	> 10 µM	–	–
Cc1cc(NC(=O)c2ccc(OCc3ccccc3)cc2)ccc1N1CCN(C(=O)c2cccs2)CC1 [NA-74]	> 10 µM	> 10 µM	–	–
Cc1ccc(C(=O)Nc2cc(-c3nc4cc(C(C)C)ccc4o3)ccc2C)cc1C [ND-9]	–	–	> 25 µM	> 25 µM
COc1ccc(C(=O)Nc2cc(-c3nc4cc(C(C)C)ccc4o3)ccc2C)cc1 [ND-10]	–	–	> 25 µM	> 25 µM
Cc1ccc(-c2nc3cc(C(C)C)ccc3o2)cc1NC(=S)NC(=O)c1cccc(F)c1 [ND-11]	–	–	> 25 µM	> 25 µM
Cc1ccc(-c2nc3cc(C(C)C)ccc3o2)cc1NC(=O)c1cc2ccccc2o1 [ND-12]	–	–	47.6 µM	> 25 µM
COc1cc(C(=O)Nc2cc(-c3nc4cc(C(C)C)ccc4o3)ccc2C)cc(OC)c1OC [ND-14]	–	–	> 25 µM	> 25 µM
COc1ccc(-c2nc3cc(C(C)C)ccc3o2)cc1NC(=O)c1cccc([N+](=O)[O-])c1C [ND-15]	–	–	> 25 µM	> 25 µM
CCOc1ccc(C(=O)Nc2cccc(-c3nc4cc(C(C)C)ccc4o3)c2)cc1[N+](=O)[O-] [ND-17]	–	–	> 25 µM	> 25 µM
COc1ccc(C(=O)Nc2nc(-c3cc4ccccc4oc3=O)cs2)cc1[N+](=O)[O-] [ND-29]	–	–	> 25 µM	> 25 µM
Cc1ccc(C(=O)Nc2nc(C)c(-c3ccccc3)s2)cc1[N+](=O)[O-] [ND-32]	–	–	> 25 µM	> 25 µM

Structure (SMILES)	CC50 ([1]; Human Reporter Cell Line)	CC50 (J774-Dual cytotoxicity; Mouse Reporter Cell Line)	CC50 ([1]; Human Reporter Cell Line THP1)	CC50 (J774-Dual cytotoxicity; Mouse Reporter Cell Line J774)
Cc1cc2nc(-c3ccc(C)c(NC(=O)c4cc([N+](=O)[O-])ccc4Cl)c3)oc2cc1C [ND-33]	–	–	> 25 µM	> 25 µM
CCOc1ccc(C(=O)Nc2ccc3oc(-c4cccnc4)nc3c2)cc1[N+](=O)[O-] [ND-44]	–	–	> 25 µM	> 25 µM
COc1ccc(C(=O)Nc2ccc(Cl)c(-c3nc4cc(C)c(C)cc4o3)c2)cc1[N+](=O)[O-] [ND-45]	–	–	12.9 µM	> 25 µM
Cc1ccc(-c2nc3cc(NC(=O)c4ccc(C)c([N+](=O)[O-])c4)ccc3o2)cc1 [ND-49]	–	–	5.52 µM	> 25 µM
Cc1cc(C(=O)Nc2cc(-c3nc4ccccc4s3)ccc2Cl)ccc1[N+](=O)[O-] [ND-51]	–	–	22.1 µM	> 25 µM
Cc1ccc(-c2nc3cc(C(C)C)ccc3o2)cc1NC(=O)c1ccc(Cl)cc1 [ND-53]	–	–	> 25 µM	> 25 µM
Cc1ccc(-c2nc3cc(C(C)C)ccc3o2)cc1NC(=O)c1ccc(F)c([N+](=O)[O-])c1 [ND-54]	–	–	6.84 µM	> 25 µM
Cc1ccc(C(=O)Nc2cc(C(C)C)ccc2O)cc1[N+](=O)[O-] [ND-55]	–	–	> 25 µM	> 25 µM
Cc1cc2nc(-c3ccc(C)c(Nc4[nH]c(=O)[nH]c(=O)c4[N+](=O)[O-])c3)oc2cc1C [ND-56]	–	–	> 25 µM	> 25 µM
Cc1ccc(-c2nc3cc(C(C)C)ccc3o2)cc1[N+](=O)[O-] [ND-57]	–	–	> 25 µM	> 25 µM
Cc1cc2nc(-c3ccc(C)c(N)c3)oc2cc1C [ND-59]	–	–	> 25 µM	> 25 µM
CCOC(=O)C1=CCCC[C@H]1S(=O)(=O)Nc1ccc(F)cc1Cl [ND-72]	–	–	> 25 µM	> 25 µM
ClCCCOc1ccc(-c2nc3ccc(OCCCCl)cc3o2)cc1 [ND-73]	–	–	> 25 µM	> 25 µM
Cc1cc2nc(-c3ccc(C)c(NC(=O)c4ccc(C(F)(F)F)c([N+](=O)[O-])c4)c3)oc2cc1C [ND-75]	–	–	> 25 µM	> 25 µM
CC1=NN(c2ccccc2)C(=O)C1 [ND-77]	–	–	> 25 µM	> 25 µM
COc1ccc(C(=O)Nc2ccc(OC)cc2OC)cc1 [ND-78]	–	–	> 25 µM	> 25 µM
Cc1ccc(-c2nc3cc(OCCCN4CCCC4)ccc3o2)cc1[N+](=O)[O-] [ND-83]	–	–	> 25 µM	> 25 µM
Cc1ccc(-c2nc3cc(O)ccc3o2)cc1[N+](=O)[O-] [ND-85]	–	–	> 25 µM	> 25 µM
COc1ccc(C(=O)Nc2cc(-c3nc4ccccc4s3)ccc2C)cc1C(F)(F)F [ND-87]	–	–	3.02 µM	> 25 µM
